In patent EP3818828A1 (priority 2019, dated 2021):
In brackets after ≈: the same amount, converted by molar mass. Where two headings read alike, the source gives them in different places.

How the values were obtained:
Colletotrichum capsici = experiment: Toxicity determination (EC50) on mycelial growth, growth rate method; format: cell-based; conditions: for EC50: median inhibition concentration
Botrytis cinerea = experiment: as above; format: cell-based
Valsa mali = experiment: as above; format: cell-based; conditions: for EC50: median inhibition concentration
[1] = tested on: damping-off (P. aphanidermatum, P.capsici); experiment: In-vivo greenhouse control of damping-off of eggplants; conditions: Eggplant; sick soil; 0.80 mg/mL (active ingredients)
Method: (§1) 3.88 g of 3-(3',4'-methylenedioxy phenyl)-N-n-propyl acrylamide was weighed and dissolved in 25 g of absolute ethyl alcohol, then 6 g of emulsifier 0203B was added, and mixed uniformly with stirring to get 10% of 3-(3',4'-methylenedioxy phenyl)-N-n-propyl acrylamide EC.
(§2) 5.61 g of 3-(3',4'-methylenedioxy phenyl)-piperidine acrylate was weighed and dissolved in 25 g of absolute ethyl alcohol, then 6 g of emulsifier 0203B was added, and mixed uniformly with stirring to get 14% of 3-(3',4'-methylenedioxy phenyl)-piperidine acrylate EC.
(§3) Sick soil of damping-off (P. aphanidermatum, P.capsici) was collected from the fields of tomatoes, eggplants and peppers in a solar greenhouse, and mixed evenly in equal proportion. Tomatoes (Variety: Song Tian Fen Yang Yang, 100 grains), eggplants (Variety: Lanza No. 2 F1 long eggplant, 100 grains), pepper (Longjiao No. 2 F1, 100 grains) were seeded quantitatively with the sick soil in pots (diameter: 15 cm) in a greenhouse, additionally with sterile vermiculite as the control (each 100 grains for determining the germination rate). […] Mortality of seedlings was investigated after the seedlings had grown 2 true leaves, and the control effect of each treatment on damping-off was calculated. […]

F. graminearum = experiment: microbe, parasite or virus in culture; format: cell-based; conditions: for EC50: median inhibition concentration
[2] = tested on: damping-off (P. aphanidermatum, P.capsici); experiment: In-vivo greenhouse control of damping-off of peppers; conditions: Pepper; sick soil; 0.80 mg/mL (active ingredients)
Method: as §1, §2, §3

[3] = EC50 of chlorothalonil / EC50 of agent
[4] = EC50 of procymidone / EC50 of agent

Compound: O=C(/C=C/c1ccc2c(c1)OCO2)N1CCCCC1 [3-(3',4'-methylenedioxyphenyl)-piperidine acrylate]
- EC50 (Colletotrichum capsici; Colletotrichum truncatum, read-out: EC50): 130 mg/L (≈ 501 µM)
- Relative Toxicity (Compared to Chlorothalonil) (Colletotrichum capsici; [3]): 3.23
- Relative Toxicity (Compared to Procymidone) (Colletotrichum capsici; [4]): 4.13
- EC50 (Colletotrichum capsici; listed as 66#): 125.3 mg/L (≈ 483 µM)
- Relative Toxicity (Compared to Chlorothalonil) (Botrytis cinerea; [3]): 0.84
- Relative Toxicity (Compared to Procymidone) (Botrytis cinerea; [4]): 0.37
- EC50 (Botrytis cinerea; median inhibition concentration): 212 mg/L (≈ 816 µM)
- EC50 (Valsa mali; Cytospora mali, read-out: EC50): 90 mg/L (≈ 347 µM)
- Relative Toxicity (Compared to Chlorothalonil) (Valsa mali; [3]): 4.68
- Relative Toxicity (Compared to Procymidone) (Valsa mali; [4]): 4.78
- EC50 (Valsa mali; listed as 66#): 89.4 mg/L (≈ 345 µM)
- Control Effect [1]: 63.47%
- Relative Toxicity (Compared to Chlorothalonil) (F. graminearum; [3]): 1.82
- Relative Toxicity (Compared to Procymidone) (F. graminearum; [4]): 6.83
- EC50 (F. graminearum; Fusarium graminearum): 120 mg/L (≈ 463 µM)
- EC50 (F. graminearum; listed as 66#): 124.5 mg/L (≈ 480 µM)
- Control Effect [2]: 67.71%
